Measured values reported in US20260083704A1, “LXR MODULATORS WITH BICYCLIC CORE MOIETY FOR TREATING DYSLIPIDEMIAS” (OrsoBio, Inc., priority 2022, published 2026).

What was measured:
[1] = biological target: T1, LXRβ (Homo sapiens, UniProt P55055); test: LXR Gal4 reporter transient transfection assay (mammalian two-hybrid, HEK293), LXRβ; format: cell-based; parameters: LXRβ (amino acids 156-461); expressed in transfected cells; host or cells: HEK293; conditions: full length (FL) LXRβ, HEK293; read-out: FL-M2H Gal4β
T1 sequence (P55055 1-460): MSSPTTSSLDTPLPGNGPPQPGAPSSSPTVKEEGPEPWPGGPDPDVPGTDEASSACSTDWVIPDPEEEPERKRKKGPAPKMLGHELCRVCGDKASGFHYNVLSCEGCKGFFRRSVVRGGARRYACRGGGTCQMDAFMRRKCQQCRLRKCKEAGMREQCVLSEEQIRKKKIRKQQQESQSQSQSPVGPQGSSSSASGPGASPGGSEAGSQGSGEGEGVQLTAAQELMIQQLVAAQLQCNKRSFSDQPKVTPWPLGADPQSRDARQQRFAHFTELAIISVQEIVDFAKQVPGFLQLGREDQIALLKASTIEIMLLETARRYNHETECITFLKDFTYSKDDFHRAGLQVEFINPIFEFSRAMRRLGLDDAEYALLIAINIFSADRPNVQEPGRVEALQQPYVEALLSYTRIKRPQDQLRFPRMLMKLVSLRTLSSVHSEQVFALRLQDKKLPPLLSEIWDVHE
Experimental: LXRα and LXRβ activity status was determined via detection of interaction with coactivator and corepressor proteins in mammalian two-hybrid experiments (M2H). For this, via transient transfection the full length (FL) proteins of LXRα (amino acids 1-447; NP005684; SEQ ID NO:1) or LXRβ-(amino acids 1-461; NP009052; SEQ ID NO:2) or the ligand-binding domains (LBD) of LXRα (amino acids 155-447 SEQ ID NO:3) or LXRβ (amino acids 156-461; SEQ ID NO:4) were expressed from pCMV-AD (Stratagene) as fusions to the transcriptional activation domain of NFkB. As cofactors, domains of either the steroid receptor coactivator 1 (SRC1; amino acids 552-887; SEQ ID NO:5) or of the corepressor NCoR (amino acids 1906-2312; NP006302; SEQ ID NO:6) were expressed as fusions to the DNA binding domain of the yeast transcription factor GAL4 (from pCMV-BD; Stratagene). Interaction was monitored via activation of a coexpressed Firefly Luciferase Reporter gene under control of a promoter containing repetitive GAL4 response elements (vector pFRLuc; Stratagene). Transfection efficiency was controlled via cotransfection of constitutively active pRL-CMV Renilla reniformis luciferase reporter (Promega). HEK293 cells were grown in minimum essential medium (MEM) with 2 mM L-glutamine and Earle's balanced salt solution supplemented with 8.3% fetal bovine serum, 0.1 mM non-essential amino acids, 1 mM sodium pyruvate, at 37° C. in 5% CO2. 3.5×10^4 cells/well were plated in 96-well cell culture plates in growth medium supplemented with 8.3% fetal bovine serum for 16-20 h to ˜90% confluency. For transfection, medium was taken off and LXR and cofactor expressing plasmids as well as the reporter plasmids are added in 30 μL OPTIMEM/well including polyethylene-imine (PEI) as vehicle. Typical amounts of plasmids transfected/well: pCMV-AD-LXR (5 ng), pCMV-BD-cofactor (5 ng), pFR-Luc (100 ng), pRL-CMV (0.5 ng). Compound stocks were prepared in DMSO, prediluted in MEM to a total volume of 120 μL, and added 4 h after addition of the transfection mixture (final vehicle concentration not exceeding 0.2%). Cells were incubated for additional 16 h, lysed for 10 min in 1×Passive Lysis Buffer (Promega) and Firefly and Renilla luciferase activities were measured sequentially in the same cell extract using buffers containing D-luciferine and coelenterazine, respectively. Measurements of luminescence were done in a BMG-luminometer.
The potencies of Compound 21/3 and its analog, Compound pre-6/3, against LXRα and LXRβ were evaluated in biochemical binding assays, cellular mammalian two-hybrid (M2H) interaction assays evaluating nuclear receptor co-repressor (NCOR) recruitment, and cellular reporter assays evaluating transcriptional activity (Table 5).

[2] = biological target: T2, GST-LXRβ ligand-binding domain (Homo sapiens, UniProt P55055); test: TR-FRETβ activity assay (NCoA3 coactivator peptide recruitment); format: biochemical; conditions: 1 μM 24(S)-25-epoxycholesterol prestimulation
T2 construct: amino acids 156-461; NP009052; made in house; host or cells: E. coli
T2 sequence (P55055 156-460 limits assumed): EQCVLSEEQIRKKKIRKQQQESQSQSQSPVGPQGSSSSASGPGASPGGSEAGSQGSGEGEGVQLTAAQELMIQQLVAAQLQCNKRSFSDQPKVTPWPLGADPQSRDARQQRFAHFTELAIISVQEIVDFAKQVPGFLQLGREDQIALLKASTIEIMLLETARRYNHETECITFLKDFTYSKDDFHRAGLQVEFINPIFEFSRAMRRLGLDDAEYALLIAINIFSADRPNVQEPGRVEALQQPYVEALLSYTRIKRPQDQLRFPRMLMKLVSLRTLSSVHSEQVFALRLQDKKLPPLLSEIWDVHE
Experimental: Recombinant GST-LXRβ ligand-binding domain (LBD; amino acids 156-461; NP009052; SEQ ID NO:4) was expressed in E. coli and purified via gluthatione-sepharose affinity chromatography. N-terminally biotinylated NCoA3 coactivator peptide (SEQ ID NO:7) was chemically synthesized (Eurogentec). Assays were done in 384 well format (final assay volume of 25 μL/well) in a Tris/HCl buffer (pH 6.8) containing KCl, bovine serum albumin, Triton-X-100 and 1 μM 24(S)-25-epoxycholesterol as LXR-prestimulating agonist. Assay buffer was provided and test articles (potential LXR inverse agonists) were titrated to yield final assay concentrations of 50 μM, 16.7 μM, 5.6 μM, 1.9 μM, 0.6 μM, 0.2 μM, 0.07 μM, 0.02 μM, 0.007 μM, 0.002 μM with one vehicle control. Finally, a detection mix was added containing anti GST-Tb cryptate (CisBio; 610SAXLB) and Streptavidin-XL665 (CisBio; 610SAXLB) as fluorescent donor and acceptor, respectively, as well as the coactivator peptide and LXRβ-LBD protein (SEQ ID NO:4). The reaction was mixed thoroughly, equilibrated for 1 h at 4° C. and vicinity of LXRβ and coactivator peptide was detected by measurement of fluorescence in a VictorX4 multiplate reader (PerkinElmer Life Science) using 340 nm as excitation and 615 and 665 nm as emission wavelengths. Assays were performed in triplicates.
240 mM KCl, 1 μg/μL BSA, 0.002% Triton-X-100, […] anti GST-Tb cryptate, 2.5 ng/μL Streptavidin-XL665, coactivator peptide (400 nM), LXRβ protein (530 μg/mL, i.e. 76 nM).

Compound | EC50 [1] [nM] | EC50 [2] [nM]
Cc1ccc(S(=O)(=O)n2c(-c3cccc(N4CC(C(=O)O)C4)c3)c(-c3ccoc3C#N)c3cc(F)ccc32)cc1 [3/26] | < 100 | 1000 to 10000
Cc1ccc(S(=O)(=O)n2c(-c3cccc(N4CC(C(=O)O)C4)c3)c(-c3ccsc3CCO)c3cc(F)ccc32)cc1 [3/27] | 100 to 1000 | 1000 to 10000
Cc1ccc(S(=O)(=O)n2c(-c3cccc(N4CC(C(=O)O)C4)c3)c(-c3ccsc3C(=O)N(C)C)c3cc(F)ccc32)cc1 [3/28] | 1000 to 10000 | > 10000
Cc1ccc(S(=O)(=O)n2c(-c3cccc(N4CC(C(=O)O)C4)c3)c(-c3ccsc3C(F)(F)F)c3cc(F)ccc32)cc1 [3/30] | < 100 | 100 to 1000
Cc1ccc(S(=O)(=O)n2c(-c3cccc(N4CC(C(=O)O)C4)c3)c(-c3ccccc3C3COC3)c3cc(F)ccc32)cc1 [3/31] | 100 to 1000 | 100 to 1000
Cc1ccc(S(=O)(=O)n2c(-c3cccc(N4CC(C(=O)O)C4)c3)c(-c3ccsc3C#N)c3cc(F)ccc32)cc1 [3/32] | < 100 | 100 to 1000
N#Cc1sccc1-c1c(-c2cccc(N3CC(C(=O)O)C3)c2)n(S(=O)(=O)c2ccc(C(F)(F)F)cc2)c2ccc(F)cc12 [3/34] | < 100 | 100 to 1000
N#Cc1sccc1-c1c(-c2cccc(N3CC(C(=O)O)C3)c2)n(S(=O)(=O)c2ccc(C(F)F)cc2)c2ccc(F)cc12 [3/35] | < 100 | 100 to 1000
CC1CCN(S(=O)(=O)n2c(-c3cccc(N4CC(C(=O)O)C4)c3)c(-c3ccsc3C#N)c3cc(F)ccc32)CC1 [3/36] | 100 to 1000 | 1000 to 10000
Cc1ccc(S(=O)(=O)n2c(-c3cccc(N4CC(C)(C(=O)O)C4)c3)c(-c3ccsc3C#N)c3cc(F)ccc32)cc1 [3/37] | < 100 | 100 to 1000
Cc1ccc(S(=O)(=O)n2c(-c3cccc(N4CCC(C(=O)O)CC4)c3)c(-c3ccsc3C#N)c3cc(F)ccc32)cc1 [3/38] | < 100 | 100 to 1000
Cc1ccc(S(=O)(=O)n2c(-c3cccc(C4CC(C(=O)O)C4)c3)c(-c3ccsc3C#N)c3cc(F)ccc32)cc1 (centres unmarked) [3/39] | < 100 | 100 to 1000
Cc1ccc(S(=O)(=O)n2c(-c3cc(N4CC(C(=O)O)C4)ccc3Cl)c(-c3ccsc3C#N)c3cc(F)ccc32)cc1 [3/40] | < 100 | 1000 to 10000
Cc1ccc(S(=O)(=O)n2c(-c3cc(N4CC(C(=O)O)C4)ccc3F)c(-c3ccsc3C#N)c3cc(F)ccc32)cc1 [3/41] | < 100 | 1000 to 10000
Cc1ccc(S(=O)(=O)n2c(-c3cccc(N4CC(C(=O)O)C4)c3)c(-c3ccsc3C#N)c3cc(C#N)ccc32)cc1 [3/45] | 100 to 1000 | 1000 to 10000
Cc1ccc(S(=O)(=O)n2c(-c3cccc(-c4ccc(C(=O)O)nc4)c3)c(-c3ccsc3C#N)c3cc(F)ccc32)cc1 [3/47] | < 100 | 100 to 1000

Compound | EC50 [1] [nM] | EC50 [2] [nM]
Cc1ccc(S(=O)(=O)n2c(-c3cccc(-c4ccc(C(=O)O)c(Cl)c4)c3)c(-c3ccsc3C#N)c3cc(F)ccc32)cc1 [3/49] | < 100 | 100 to 1000
Cc1ccc(S(=O)(=O)n2c(-c3cccc(N4CCC(C)(C(=O)O)CC4)c3)c(-c3ccsc3C#N)c3cc(F)ccc32)cc1 [3/50] | < 100 | 100 to 1000
Cc1ccc(S(=O)(=O)n2c(-c3cccc(N4CC(C(=O)NC(C)(C)C(=O)O)C4)c3)c(-c3ccsc3C#N)c3cc(F)ccc32)cc1 [3/52] | 100 to 1000 | 100 to 1000
COc1cc(F)cc2c(-c3ccsc3C#N)c(-c3cccc(-c4ccc(C(=O)O)cc4)c3)n(S(=O)(=O)c3ccc(C)cc3)c12 [3/53] | < 100 | < 100
Cc1ccc(S(=O)(=O)n2c(-c3cccc(-c4ccc(C(=O)O)cc4)c3)c(-c3ccsc3C#N)c3cc(F)cc(O)c32)cc1 [3/54] | < 100 | 100 to 1000
Cc1ccc(S(=O)(=O)n2c(-c3cccc(-c4ccc(C(C)(O)C(=O)O)cc4)c3)c(-c3ccsc3C#N)c3cc(F)ccc32)cc1 (centres unmarked) [3/55] | < 100 | 100 to 1000
O=C(O)c1ccc(-c2cccc(-c3c(-c4ccccc4C4COC4)c4cc(F)ccc4n3S(=O)(=O)c3ccc(Cl)cc3)c2)c(Cl)c1 [3/56] | < 100 | < 100
N#Cc1sccc1-c1c(-c2cccc(-c3ccc(C(=O)O)cc3Cl)c2)n(S(=O)(=O)c2ccc(Cl)cc2)c2ccc(F)cc12 [3/57] | < 100 | 100 to 1000
Cc1ccc(S(=O)(=O)n2c(-c3cccc(N4[C@@H]5CC[C@H]4C[C@@H](C(=O)O)C5)c3)c(-c3ccsc3C#N)c3cc(F)ccc32)cc1 [3/58] | < 100 | 1000 to 10000
N#Cc1sccc1-c1c(-c2cccc(N3CCC(C(=O)O)CC3)c2)n(S(=O)(=O)c2ccc(C(F)F)cc2)c2ccc(F)cc12 [3/60] | < 100 | 100 to 1000
O=C(O)c1ccc(-c2cccc(-c3c(-c4ccccc4C4(F)CNC4)c4cc(F)ccc4n3S(=O)(=O)c3ccc(C(F)F)cc3)c2)c(Cl)c1 [3/61] | 100 to 1000 | 100 to 1000
CN1CC(F)(c2ccccc2-c2c(-c3cccc(-c4ccc(C(=O)O)cc4Cl)c3)n(S(=O)(=O)c3ccc(C(F)F)cc3)c3ccc(F)cc23)C1 [3/62] | < 100 | 100 to 1000
O=C(O)c1ccc(-c2cccc(-c3c(-c4ccsc4C4COC4)c4cc(F)ccc4n3S(=O)(=O)c3ccc(C(F)F)cc3)c2)c(Cl)c1 [3/63] | < 100 | < 100
Cc1ccc(S(=O)(=O)n2c(-c3cccc(C4CC5(CC(C(=O)O)C5)C4)c3)c(-c3ccsc3C#N)c3cc(F)ccc32)cc1 (centres unmarked) [3/65] | < 100 | 100 to 1000
CC1(C)CCN(S(=O)(=O)n2c(-c3cccc(-c4ccc(C(=O)O)cc4)c3)c(-c3ccsc3C#N)c3ccccc32)CC1 [3/66] | 100 to 1000 | 1000 to 10000
